According to ChEMBL document CHEMBL1157874, “Synthesis, spectroscopic and biological studies on the new symmetric Schiff base derived from 2,6-diformyl-4-methylphenol with N-aminopyrimidine” (2010):
≈ marks a conversion by molar mass, not a printed value.

Columns and labels:
Type in all cases: functional
Bacillus cereus = assay: Antibacterial activity against Bacillus cereus ATCC 7064 after 18 hrs by broth microdilution assay; settings: ATCC 7064, 18 h
Staphylococcus aureus [1] = assay: Antibacterial activity against Staphylococcus aureus ATCC 6538 after 18 hrs by broth microdilution assay; settings: ATCC 6538, 18 h
Staphylococcus aureus [2] = assay: Antibacterial activity against Staphylococcus aureus ATCC 25923 after 18 hrs by broth microdilution assay; settings: ATCC 25923, 18 h
Micrococcus luteus = assay: Antibacterial activity against Micrococcus luteus ATCC 9345 after 18 hrs by broth microdilution assay; settings: ATCC 9345, 18 h
Pichia kudriavzevii = assay: Antifungal activity against Candida krusei ATCC 6258 after 18 hrs by broth microdilution assay; settings: ATCC 6258, 18 h
Candida parapsilosis = assay: Antifungal activity against Candida parapsilosis ATCC 22019 after 18 hrs by broth microdilution assay; settings: Lodderomyces parapsilosis, ATCC 22019, 18 h
Escherichia coli = assay: Antibacterial activity against Escherichia coli ATCC 4230 after 18 hrs by broth microdilution assay; settings: ATCC 4230, 18 h
Candida albicans = assay: Antifungal activity against Candida albicans ATCC 14053 after 18 hrs by broth microdilution assay; settings: ATCC 14053, 18 h

Compound | MIC (Bacillus cereus) [µg/mL] | MIC (Staphylococcus aureus [1]) [µg/mL] | MIC (Staphylococcus aureus [2]) [µg/mL] | MIC (Micrococcus luteus) [µg/mL] | MIC (Pichia kudriavzevii) [µg/mL] | MIC (Candida parapsilosis) [µg/mL] | MIC (Escherichia coli) [µg/mL] | MIC (Candida albicans) [µg/mL]
Cc1cc(/C=N/n2cc(C(=O)c3ccccc3)c(-c3ccccc3)nc2=O)c(O)c(/C=N/n2cc(C(=O)c3ccccc3)c(-c3ccccc3)nc2=O)c1 | 80 (≈ 113 µM) | 20 (≈ 28.1 µM) | 20 (≈ 28.1 µM) | 20 (≈ 28.1 µM) | 40 (≈ 56.3 µM) | 40 (≈ 56.3 µM) | 40 (≈ 56.3 µM) | 40 (≈ 56.3 µM)
CC1(C)S[C@@H]2[C@H](NC(=O)[C@H](N)c3ccccc3)C(=O)N2[C@H]1C(=O)O [AMPICILLIN] | 5 (≈ 14.3 µM) | – | – | 10 (≈ 28.6 µM) | – | – | – | –
OC(Cn1cncn1)(Cn1cncn1)c1ccc(F)cc1F [FLUCONAZOLE] | – | – | – | – | 10 (≈ 32.7 µM) | – | – | –
